Results taken from patent US20260158050A1, “USE OF EIDD-1931 OR DERIVATIVE THEREOF IN TREATMENT OF ENTEROVIRUS INFECTION” (ACADEMY OF MILITARY MEDICAL SCIENCES, priority 2022, published 2026).

Experiments:
CV-B3 Nancy = assay: CPE protection, CV-B3 Nancy strain; assay type: cell-based; settings: for EC50: CV-B3 Nancy, Vero cells
RD cells = assay: cytotoxicity test on RD cells; assay type: cell-based, Human; settings: 3 days
Procedure: (§1) Human liver tumor cells (Huh7 cells) used in the experiment were purchased from Chinese National Infrastructure of Cell Line Resource. Human […] cells (RD cells) and African green monkey kidney cells (Vero cells) were purchased from ATCC (Cat. No.: CCL-136 and CCL-81, respectively). The above cells were cultured in a cell culture incubator at 37° C. and 5% CO2. The complete culture medium used for cell growth was DMEM high-glucose culture medium (purchased from Gibco, Cat. […] No.: 16000044) and penicillin-streptomycin (purchased from Gibco, Cat. No.: 2321152). The maintenance culture medium used for cell culture was DMEM high-glucose culture medium supplemented with 2% FBS and penicillin-streptomycin. H strain of EV-A71 was purchased from ATCC (Cat. No.: VR-1432). […] The microplate reader, model Spectra Max M5, was purchased from Molecular Devices. […] Finally, the luminescence value of each well was measured using the microplate reader. The inhibition rate of the test compounds at each dilution was calculated as follows: [formula] […] The half-cytotoxic concentrations (CC50) of the test compounds were calculated using the same method, and the select index (SI) was calculated based on EC50 and CC50: SI=CC50/EC50.

CV-A16 190-D1 = assay: CPE protection, CV-A16 190-D1 strain; assay type: cell-based; settings: for EC50: CV-A16 190-D1, RD cells
Vero cells = assay: cytotoxicity test on Vero cells; assay type: cell-based, African green monkey; settings: 3 days
Procedure: as §1

Huh7 cells = assay: cytotoxicity test on Huh7 cells; assay type: cell-based, Human; settings: 3 days
Procedure: as §1

EV-A71 [1] = assay: infectious virus particle formation in supernatant (TCID50 detection); assay type: cell-based; settings: supernatant of RD cells, TCID50 (FIG. 3 A and C)
CV-A6 TW-2007-00141 = assay: CPE protection, CV-A6 TW-2007-00141 strain; assay type: cell-based; settings: CV-A6 TW-2007-00141, RD cells
EV-D68 STL-2014-12 = assay: CPE protection, EV-D68 STL-2014-12 strain; assay type: cell-based; settings: for EC50: EV-D68 STL-2014-12, RD cells
EV-A71 RNA = assay: inhibition of EV-A71 viral RNA replication (qRT-PCR) in RD cells; assay type: cell-based; settings: 0.1 MOI, 30 hours (FIG. 3 B and D)
EV-A71 VP1 protein = assay: inhibition of EV-A71 VP1 protein synthesis (immunofluorescence, Western blot); assay type: cell-based; settings: Vero cells IF, RD cells Western blot (FIG. 4)
Procedure: Vero cells were seeded in a 96-well black plate at a density of about 1.0×10^4 per well and cultured at 37° C. and 5% CO2 for 24 hours. Then, EV-A71 virus was diluted to the corresponding concentration with cell maintenance medium and added into the 96-well plate (MOI=1). At the same time, the test compounds EIDD-1931 and EIDD-2801, which had been diluted in advance with cell maintenance medium, were added at the final concentrations of 10 μM, 3 μM and 100 μM, 30 μM, respectively. Then the cells were cultured for 16 hours, the liquid was discarded, 100 μL of 4% formaldehyde was added to each well for fixation for 30 minutes, the fixative was discarded, PBS buffer was added, and the antibody was incubated and labeled for imaging.
RD cells were seeded in a 12-well plate at a density of about 1.0×10^5 per well and cultured at 37° C. and 5% CO2 for 24 hours. Then, EV-A71 virus was diluted to the corresponding concentration with cell maintenance medium and added to the 12-well plate so that the virus content in each well was 0.1 MOI. […] After the protein concentration was determined with BCA protein quantification kit, the corresponding volume of 5×SDS Loading Buffer was added and boiled at 100° C. for 10 minutes to fully denature the protein. […]

EV-A71 AH08/06 = assay: CPE protection, EV-A71 AH08/06 strain; assay type: cell-based; settings: EV-A71 AH08/06, RD cells
EV-A71 [2] = assay: EV-A71 viral load in ICR suckling mice tissues (qRT-PCR); assay type: in vivo; settings: 200 mg/kg intraperitoneally once per day, 4th day (FIG. 7)

Compound | EC50 (CV-B3 Nancy) | CC50 (RD cells) | EC50 (CV-A16 190-D1) | CC50 (Vero cells) | CC50 (Huh7 cells) | inhibition of production of infectious viral particles (EV-A71 [1]) | EC50 (CV-A6 TW-2007-00141) | EC50 (EV-D68 STL-2014-12) | inhibition of replication of EV-A71 RNA (EV-A71 RNA) | inhibition of production of EV-A71 VP1 protein (EV-A71 VP1 protein) | EC50 (EV-A71 AH08/06) | viral loads in tissues or organs (brain, heart, small intestine, liver, hind limb muscle, lung) (EV-A71 [2]) | inhibitory activity against CV-B3 (CV-B3 Nancy) | inhibitory activity against CV-A16 (CV-A16 190-D1) | inhibitory activity against EV-V68 (EV-D68 STL-2014-12)
O=c1nc(NO)ccn1[C@@H]1O[C@H](CO)[C@@H](O)[C@H]1O [EIDD-1931] | 3.65 ± 0.82 µM | 80.47 ± 0.02 µM | 4.14 ± 0.27 µM | 14.1 ± 0.43 µM | 34.09 ± 0.06 µM | inhibited | 17.7 ± 0.38 µM | 9.69 ± 0.04 µM | dose-dependently inhibited | dose-dependently inhibit | 2.79 ± 0.89 µM | significantly reduced | – | – | –
CC(C)C(=O)OC[C@H]1O[C@@H](n2cc/c(=N\O)[nH]c2=O)[C@H](O)[C@@H]1O [EIDD-2801] | 87.2 ± 10.8 µM | > 100 µM | 44.9 ± 4.23 µM | > 100 µM | > 100 µM | inhibited | > 100 µM | 86.2 ± 9.17 µM | dose-dependently inhibited | dose-dependently inhibit | 30.3 ± 0.55 µM | significantly reduced | low inhibitory activity | low inhibitory activity | low inhibitory activity
